Common to all, as to type: cell-based
Test [1] has as its system Listeria monocytogenes ATCC 7644. Description: modified detergent and germicidal sanitizer test of the A.O.A.C. Particulars: L.m. 7644. The protocol: (§1) The […], Listeria monocytogenes, Aeromonas hydrophila, and Pseudomonas aeruginosa essentially by the modified detergent and germicidal sanitizer test of the A.O.A.C. The sanitizers were tested against both natural isolates and the antibiotic resistant strains of Listeria monocytogenes and Salmonella typhimurium. Each of the antibiotic resistant strains was used separately as well as in a composite strain prepared by mixing equal numbers of five different antibiotic resistant strains of Listeria monocytogenes or those of Salmonella typhimurium, respectively.

The subject of test [2] is Aeromonas hydrophila ATCC 7965. Described as above. Particulars: A.h. 7965. On the procedure:
as §1

Test [3] has as its system Staphylococcus aureus ATCC 6538. Description: A.O.A.C. sanitizer and germicidal detergent test. To be noted: compositions at listed % w/v; hypochlorite 50 ppm; sanitizer criterion 99.999% in 30 s. The text has this:
(§2) The bacterial cultures were purchased from the American Type Culture Collection (ATCC), (Bethesda, Md.). Escherichia coli and Staphylococcus aureus are used to represent both gram negative and gram-positive bacterial classes. This test is used by the US EPA for to determine compliance for a product to be used as a sanitizing agent. A product that reduces population density of both types of bacteria in 30 s by 99.999% satisfies the requirement as a sanitizing agent.

Test [4] has as its system Escherichia coli ATCC 11229. Kind of test: A.O.A.C. sanitizer and germicidal detergent test. To be noted: compositions at listed % w/v; hypochlorite 50 ppm; sanitizer criterion 99.999% in 30 s.
Description: as §2

The test system of test [5] is Pseudomonas aeruginosa ATCC 10145. Kind of test: modified detergent and germicidal sanitizer test of the A.O.A.C. To be noted: P.a. 10145. On the procedure: (§3) The efficacy of the sanitizers of Examples I-III were further evaluated with 50 ppm of hypochlorite as a control against Salmonella typhimurium, Listeria monocytogenes, Aeromonas hydrophila, and Pseudomonas aeruginosa essentially by the modified detergent and germicidal sanitizer test of the A.O.A.C. The sanitizers were tested against both natural isolates and the antibiotic resistant strains of Listeria monocytogenes and Salmonella typhimurium. Each of the antibiotic resistant strains was used separately as well as in a composite strain prepared by mixing equal numbers of five different antibiotic resistant strains of Listeria monocytogenes or those of Salmonella typhimurium, respectively.

Test [6] has as its system Salmonella typhimurium ATCC 7823. Described as above. Also noted: key to Number of surviving bacteria/ml after 30 seconds: Too Numerous To Count. To be noted: S.t. 7823. On the procedure:
as §3

Setting [7] is: 30 seconds contact, HOCL = 200 ppm (mark on the cfu cell beside).

Take `OCl` [Hypochlorite]: the “% Kill after 30 seconds” value was >99.999% in test [1] (setting [7]); >99.999% in test [2] (setting [7]); >99.999% in test [5] (30 seconds contact); <99.999% in test [6] (30 seconds contact, HOCL = 50 ppm (mark on the cfu cell beside)). For the same compound, the “% Kill after 60 seconds” value in test [1] (60 seconds contact), in test [2] (60 seconds contact), in test [5] (60 seconds contact) and in test [6] (60 seconds contact) was >99.999% throughout. In test [3], the “% Kill Staph. aureus” value was >99.999%. For the same compound, the “% Kill E. coli” value in test [4] is reported as >99.999%. Further, in test [6] (30 seconds contact, HOCL = 50 ppm), the “Number of surviving bacteria/ml after 30 seconds” value is on record as “T@, T@”.
